Assay results: ChEMBL document CHEMBL5728364, “Compounds as autotaxin inhibitors and pharmaceutical compositions comprising the same” (2021)

target: Autotaxin (Homo sapiens, UniProt Q13822); test: Inhibitory Activity Assay: Two-fold dilution of each test compound solution (10 μM, 100% dimethyl sulfoxide) is carried out on 96-well V bottom plate (Costar 3363). After ten-fold dilution of each the test compound solution (100% dimethyl sulfoxide) with deionized distilled water, 10 μL of the diluted each mpound solution (10% dimethyl sulfoxide) was aliquoted to a black flat bottom 96-well plate (Costar 3915). 50 μL of 1.6× Assay solution (224 mM NaCl, 80 mM Tris-HCl (pH 8.0), 8 mM KCl, 1.6 mM CaCl2, 1.6 mM MgCl2, and 1.6 mg/mL fatty acid free BSA) was added thereto, and subsequently 20 μL of 20 nM human ENPP2 solution (buffer solution: 140 mM NaCl, 50 mM Tris-HCl (pH 8.0), 5 mM KCl, 1 mM CaCl2, 1 mM MgCl2, and 1 mg/mL fatty acid free BSA) and 20 μL of 5 μM FS-3 solution (buffer solution:deionized distilled water) were added thereto, respectively, followed by mixing.

Structure (SMILES)	IC50 [nM]
O=C(Cc1nc(-c2cnc(NC3Cc4ccccc4C3)nc2)no1)N1CCc2[nH]nnc2C1	2.5
O=C(Cn1cc(-c2cnc(NCc3cccc(OC(F)(F)F)c3)nc2)nn1)N1CCc2[nH]nnc2C1	2.9
O=C(NCCN1CCN(c2cnc(NC3Cc4ccccc4C3)nc2)CC1)c1ccc2[nH]c(=O)oc2c1	2.9
NS(=O)(=O)NC1CCN(C(=O)Cc2nnc(-c3cnc(NC4Cc5ccccc5C4)nc3)o2)C1 (centres undefined)	4.6
